According to patent US20050238740A1, “Use of mastic and its components for the control of microbial infections” (priority 2002, published 2005):
Values after ≈ are worked out from the molar mass of the structure shown. Values joined by “and” are separate entries in the source; they are usually repeats but may differ in a detail not shown here. Equal values may be shown once. Read-outs that look alike come from different tables or passages of the source.

Tests used:
Assay in all cases: MTT cytotoxic/cytostatic activity, 48 hours exposure
Format in all cases: cell-based
[1] = tested on: human epidermoid carcinoma A431; settings: for IC50: Homo sapiens, A-431
Protocol: (§1) Three extracts derived from Pistacia lentiscus var. Chia were tested for their cytotoxic/cytostatic activity against three established cancer cell lines, i.e human mammary adenocarcinoma MCF-7, human colon adenocarcinoma HT-29, and human epidermoid carcinoma A431. A modification of the MTT method (Denizot and Lang, 1986, J Immunol Meth 89, 271) was used for the assessment of cytotoxicity. Briefly, exponentially growing cells were exposed to varying concentrations of the test compounds (or control medium) for 48 hours. Then, the medium was replaced with MTT [3-(4,5-dimethylthiazol-2-yl)-2,5-diphenyltetrazolium bromide] for a further 4 -hour incubation. Finally, the MTT-formazan was solubilized in isopropanol and the optical density was measured at a wavelength of 550 nm and a reference wavelength of 690 nm. A representative example of the semi-log inhibition curves obtained after exposure of A43 1 cells to the three Pistacia lentiscus extracts is illustrated in FIG. 2.
The inhibition curves were used to determine the IC50 of each extract, i.e. the concentration that produced a 50% reduction of the absorbance relative to the absorbance of the control culture. The average IC50s of each extract for each cell line, after at least three independent trials, are presented in the following table (5-fluorouracil a classical chemotherapeutic agent, was included as a positive control in the case of A431 epidermoid carcinoma cells):
We used the methodology of MTT (see Example 6), using A431 cells. The average IC50s of each compound, after at least three independent trials, are presented in the following table (the data of the previous report regarding A431 cells are included in the table for reasons of comparison):
The neutral extract of the essential oil and two of the isolated ingredients, i.e. isomasticadienolic acid, and oleanonic acid were tested for […] activity using the methodology of MTT (Example 7) and three established human cancer cell lines.

[2] = tested on: human lung carcinoma A549; settings: two independent trials, essential oil dissolved in absolute ethanol (Table 11)
[3] = tested on: human colon adenocarcinoma HT-29; settings: two independent trials, essential oil dissolved in absolute ethanol (Table 11)
Protocol: as §1
The inhibition curves were used to determine the IC50 of each extract, i.e. the concentration that produced a 50% reduction of the absorbance relative to the absorbance of the control culture. […]

[4] = A431, at least three independent trials (Table 10), read-out: IC50, inhibition of A431 cancer cell proliferation

CC1(C)C=C2[C@H]3CC[C@@H]4[C@@]5(C)CCC(=O)C(C)(C)[C@@H]5CC[C@@]4(C)[C@]3(C)CC[C@@]2(C(=O)O)CC1 [moronic, moronic acid]
IC50 [1, 4]: 47.7 µg/mL and 105 µM

CC1(C)CC[C@]2(C(=O)O)CC[C@]3(C)C(=CC[C@@H]4[C@@]5(C)CCC(=O)C(C)(C)[C@@H]5CC[C@]43C)[C@@H]2C1 [oleanonic, oleanonic acid]
IC50 ([2]; Homo sapiens): 110 µg/mL (≈ 242 µM)
IC50 [1, 4]: 17.5 µg/mL and 38.3 µM
IC50 ([1]; Epidermoid carcinoma A431, two independent trials, essential oil dissolved in absolute ethanol (Table 11), read-out: average IC50): 45 µg/mL (≈ 99 µM)
IC50 ([3]; Homo sapiens): 105 µg/mL (≈ 231 µM)

C/C(=C/CC[C@H](C)[C@@H]1CC[C@]2(C)C3=C(CC[C@@]12C)[C@@]1(C)CC[C@H](O)C(C)(C)[C@@H]1CC3)C(=O)O [Isomasticadienolic, isomasticadienolic acid]
average IC50 [2]: 95 (±5) μg/mL
average IC50 ([1]; Epidermoid carcinoma A431, two independent trials, essential oil dissolved in absolute ethanol (Table 11)): 25 (±5) μg/mL
average IC50 [3]: 95 (±5) μg/mL

O=c1[nH]cc(F)c(=O)[nH]1 [5-fluorouracil, reference compound]
IC50 [1, 4]: 2.25 µg/mL and 17.3 µM
IC50 ([1]; Epidermoid carcinoma A431, 48 hours, at least three independent trials (Table 9), read-out: IC50, inhibition of cancer cell proliferation): 2.25 µg/mL (≈ 17.3 µM)
